Columns and labels:
Assay in all cases: relative viability (nuclei count vs DMSO), 5 days (fraction); higher = more cells survive
[1] = compound: CC1=NC=CC(=C1)C2=CC=C(C=C2)CC(=O)NC3=CC=C(C=C3)C4=CN=CC=C4 [Wnt-C59] + CC(=O)c1c(C)c2cnc(Nc3ccc(N4CCNCC4)cn3)nc2n(C2CCCC2)c1=O [Palbociclib] (partner 0.5 µM)
Method in brief: (§1)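 After 5 days of treatment, lung cancer cells in 1536-well plates were fixed and stained in a single step (final 0.05% Triton X-100, 1% formaldehyde, 1 ug/ml Hoechst) and their nuclei counted on 4× images. Treatment had been applied by pin tool the day after seeding as one drug alone or as a fixed anchor-drug dose with five library-drug doses (not always all listed) in √10 steps. Relative viability is the nuclei count of treated wells divided by that of vehicle wells, and values are medians of duplicate plates.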

[2] = compound: CC1=NC=CC(=C1)C2=CC=C(C=C2)CC(=O)NC3=CC=C(C=C3)C4=CN=CC=C4 [Wnt-C59] + CC(C)C[C@H](NC(=O)[C@H](Cc1ccccc1)NC(=O)c1cnccn1)B(O)O [Bortezomib] (partner 0.002 µM)
Method in brief: as §1

[3] = compound: CC1=NC=CC(=C1)C2=CC=C(C=C2)CC(=O)NC3=CC=C(C=C3)C4=CN=CC=C4 [Wnt-C59] + CCNC(=O)c1noc(-c2cc(C(C)C)c(O)cc2O)c1-c1ccc(CN2CCOCC2)cc1 [Luminespib] (partner 0.01 µM)
Method in brief: as §1

[4] = compound: CC1=NC=CC(=C1)C2=CC=C(C=C2)CC(=O)NC3=CC=C(C=C3)C4=CN=CC=C4 [Wnt-C59] + Cc1cc(Nc2cc(N3CCN(C)CC3)nc(Sc3ccc(NC(=O)C4CC4)cc3)n2)n[nH]1 [Tozasertib] (partner 0.1 µM)
Method in brief: as §1

[5] = compound: CC1=NC=CC(=C1)C2=CC=C(C=C2)CC(=O)NC3=CC=C(C=C3)C4=CN=CC=C4 [Wnt-C59] + N=C(N)NC(=N)NCCc1ccccc1 [Phenformin] (partner 250 µM)
Method in brief: as §1

Row | Cell Line | relative viability ([1]; first compound 0.001 µM) | relative viability ([1]; first compound 0.01 µM) | relative viability ([1]; first compound 0.03162 µM) | relative viability ([1]; first compound 0.1 µM) | relative viability ([2]; first compound 0.001 µM) | relative viability ([2]; first compound 0.01 µM) | relative viability ([2]; first compound 0.03162 µM) | relative viability ([2]; first compound 0.1 µM) | relative viability ([3]; first compound 0.001 µM) | relative viability ([3]; first compound 0.01 µM) | relative viability ([3]; first compound 0.03162 µM) | relative viability ([3]; first compound 0.1 µM) | relative viability ([4]; first compound 0.001 µM) | relative viability ([4]; first compound 0.01 µM) | relative viability ([4]; first compound 0.03162 µM) | relative viability ([4]; first compound 0.1 µM) | relative viability ([5]; first compound 0.001 µM) | relative viability ([5]; first compound 0.01 µM) | relative viability ([5]; first compound 0.03162 µM) | relative viability ([5]; first compound 0.1 µM)
1 | NCI-H1915 | 0.516 | 0.521 | 0.473 | 0.572 | 0.943 | 0.951 | 1.05 | 0.934 | 0.867 | 0.74 | 0.986 | 0.785 | 0.471 | 0.404 | 0.508 | 0.457 | 0.362 | 0.392 | 0.385 | 0.367
2 | Calu-6 | – | – | – | – | 0.924 | 0.99 | 1.05 | 1.07 | – | – | – | – | – | – | – | – | – | – | – | –
3 | LU99A | 0.451 | 0.372 | 0.446 | 0.417 | 1.11 | 1.08 | 1.07 | 1.1 | 0.249 | 0.269 | 0.249 | 0.263 | 0.256 | 0.276 | 0.272 | 0.262 | 0.904 | 0.845 | 0.879 | 0.876
4 | LOU-NH91 | 0.512 | 0.573 | 0.564 | 0.513 | 0.492 | 0.583 | 0.465 | 0.53 | 0.375 | 0.284 | 0.298 | 0.348 | 0.775 | 0.597 | 0.695 | 0.682 | 0.793 | 0.641 | 0.601 | 0.672
5 | NCI-H1993 | 0.694 | 0.648 | 0.663 | 0.602 | 1.14 | 1.12 | 1.21 | 1.2 | 0.862 | – | 0.948 | 0.365 | 0.607 | – | 0.515 | 0.633 | 0.49 | – | 0.472 | 0.514
6 | NCI-H1703 | – | – | – | – | 0.417 | 0.271 | 0.331 | 0.42 | – | – | – | – | – | – | – | – | – | – | – | –
7 | NCI-H2405 | 0.516 | 0.506 | 0.498 | 0.473 | 0.978 | 0.962 | 0.944 | 0.95 | 0.762 | 0.809 | 0.7 | 0.842 | 0.729 | 0.672 | 0.778 | 0.699 | 0.413 | 0.336 | 0.366 | 0.384
8 | NCI-H661 | 0.409 | 0.357 | 0.436 | 0.387 | 0.616 | 0.758 | 0.903 | 0.805 | 0.904 | 0.911 | 0.972 | 0.912 | 0.351 | 0.324 | 0.352 | 0.357 | 0.292 | 0.311 | 0.27 | 0.288
9 | COR-L 105 | 0.362 | 0.373 | 0.379 | 0.438 | 0.579 | 0.772 | 0.685 | 0.662 | 0.913 | 0.609 | 0.823 | 0.645 | 0.297 | 0.332 | 0.371 | 0.437 | 0.48 | 0.509 | 0.477 | 0.479
10 | NCI-H1437 | 0.31 | 0.309 | 0.336 | 0.335 | 0.576 | 0.433 | 0.551 | 0.395 | 1.21 | 1.07 | 1.17 | 1.05 | 0.426 | 0.428 | 0.417 | 0.384 | 0.297 | 0.296 | 0.297 | 0.26
11 | NCI-H1563 | – | – | – | – | 0.863 | 0.917 | 0.901 | 0.835 | 0.498 | 0.539 | 0.565 | 0.528 | – | – | – | – | 0.688 | 0.673 | 0.693 | 0.666
12 | NCI-H2009 | 0.231 | 0.149 | 0.198 | 0.239 | 1.07 | 1.06 | 1.03 | 0.993 | 1.04 | 0.976 | 1.07 | 0.997 | 0.805 | 0.798 | 0.72 | 0.726 | 0.535 | 0.514 | 0.495 | 0.469
13 | NCI-H23 | 0.51 | 0.508 | 0.521 | 0.474 | 1.04 | 1.07 | 0.905 | 0.962 | 0.206 | 0.217 | 0.227 | 0.217 | 0.377 | 0.33 | 0.446 | 0.333 | 0.842 | 0.663 | 0.907 | 0.749
14 | 201T | 0.347 | 0.352 | 0.359 | 0.358 | 1.14 | 1.08 | 1.13 | 1.13 | 1.03 | 1.07 | 0.996 | 1.02 | 0.96 | 0.923 | 1.05 | 0.952 | 0.446 | 0.43 | 0.424 | 0.452
15 | NCI-H520 | 0.244 | 0.208 | 0.239 | 0.222 | 0.596 | 0.611 | 0.509 | 0.57 | 0.212 | 0.212 | 0.231 | 0.212 | 0.434 | 0.54 | 0.496 | 0.43 | 0.503 | 0.59 | 0.59 | 0.55
16 | NCI-H1623 | – | – | – | – | – | – | – | – | 0.594 | 0.413 | 0.544 | 0.481 | 0.426 | 0.401 | 0.415 | 0.434 | 0.582 | 0.562 | 0.607 | 0.572
17 | A-427 | 0.55 | 0.513 | 0.509 | 0.562 | 0.98 | 1.01 | 1 | 0.979 | 0.886 | 0.943 | 0.715 | 0.933 | 0.217 | 0.183 | 0.211 | 0.243 | 0.334 | 0.338 | 0.407 | 0.384
18 | NCI-H1975 | 0.605 | 0.601 | 0.607 | 0.554 | 0.297 | 0.372 | 0.461 | 0.37 | 0.347 | 0.28 | 0.217 | 0.143 | 0.789 | 0.705 | 0.776 | 0.744 | 0.396 | 0.393 | 0.395 | 0.406

— the supplement of paper PMC10307832
